Consider 2 compounds from PMC12615753, “Glutathione as a taste modulator: molecular mechanisms of interaction with umami and sweet taste receptors” (Food Chemistry: Molecular Sciences, 2025).

As usually defined, the EC50 is the concentration giving half of the maximal effect.

In the test the target is T1, hTAS1R1 H71A/rTAS1R3 (UniProt Q7RTX1+Q923K1, H71A).
T1 construct: The cDNA coding region of rTAS1R3 was synthesized with optimized-codon usage for human expression; expressed in transfected cells; host or cells: HEK293T/17
T1 sequence (Q7RTX1 21-841 H71A): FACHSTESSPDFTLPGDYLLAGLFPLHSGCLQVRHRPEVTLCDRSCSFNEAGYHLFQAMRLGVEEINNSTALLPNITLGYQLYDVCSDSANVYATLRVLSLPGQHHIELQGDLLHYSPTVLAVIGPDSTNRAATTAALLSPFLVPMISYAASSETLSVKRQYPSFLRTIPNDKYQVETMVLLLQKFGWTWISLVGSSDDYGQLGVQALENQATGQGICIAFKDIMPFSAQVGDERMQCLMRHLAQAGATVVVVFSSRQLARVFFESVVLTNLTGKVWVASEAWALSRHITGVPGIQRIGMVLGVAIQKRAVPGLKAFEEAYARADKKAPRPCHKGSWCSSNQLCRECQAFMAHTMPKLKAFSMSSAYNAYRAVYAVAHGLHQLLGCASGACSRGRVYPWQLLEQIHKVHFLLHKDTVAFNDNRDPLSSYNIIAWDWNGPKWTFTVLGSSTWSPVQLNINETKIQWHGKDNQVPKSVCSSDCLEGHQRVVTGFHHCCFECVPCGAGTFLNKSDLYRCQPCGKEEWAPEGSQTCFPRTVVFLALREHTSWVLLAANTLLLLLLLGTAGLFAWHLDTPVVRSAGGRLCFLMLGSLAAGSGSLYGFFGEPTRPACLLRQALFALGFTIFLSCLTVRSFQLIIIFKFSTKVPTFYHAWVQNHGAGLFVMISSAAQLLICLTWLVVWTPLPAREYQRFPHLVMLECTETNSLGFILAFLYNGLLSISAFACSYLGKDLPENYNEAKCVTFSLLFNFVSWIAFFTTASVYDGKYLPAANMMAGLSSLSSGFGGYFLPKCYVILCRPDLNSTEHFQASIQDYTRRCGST
T1 sequence (Q923K1 21-858): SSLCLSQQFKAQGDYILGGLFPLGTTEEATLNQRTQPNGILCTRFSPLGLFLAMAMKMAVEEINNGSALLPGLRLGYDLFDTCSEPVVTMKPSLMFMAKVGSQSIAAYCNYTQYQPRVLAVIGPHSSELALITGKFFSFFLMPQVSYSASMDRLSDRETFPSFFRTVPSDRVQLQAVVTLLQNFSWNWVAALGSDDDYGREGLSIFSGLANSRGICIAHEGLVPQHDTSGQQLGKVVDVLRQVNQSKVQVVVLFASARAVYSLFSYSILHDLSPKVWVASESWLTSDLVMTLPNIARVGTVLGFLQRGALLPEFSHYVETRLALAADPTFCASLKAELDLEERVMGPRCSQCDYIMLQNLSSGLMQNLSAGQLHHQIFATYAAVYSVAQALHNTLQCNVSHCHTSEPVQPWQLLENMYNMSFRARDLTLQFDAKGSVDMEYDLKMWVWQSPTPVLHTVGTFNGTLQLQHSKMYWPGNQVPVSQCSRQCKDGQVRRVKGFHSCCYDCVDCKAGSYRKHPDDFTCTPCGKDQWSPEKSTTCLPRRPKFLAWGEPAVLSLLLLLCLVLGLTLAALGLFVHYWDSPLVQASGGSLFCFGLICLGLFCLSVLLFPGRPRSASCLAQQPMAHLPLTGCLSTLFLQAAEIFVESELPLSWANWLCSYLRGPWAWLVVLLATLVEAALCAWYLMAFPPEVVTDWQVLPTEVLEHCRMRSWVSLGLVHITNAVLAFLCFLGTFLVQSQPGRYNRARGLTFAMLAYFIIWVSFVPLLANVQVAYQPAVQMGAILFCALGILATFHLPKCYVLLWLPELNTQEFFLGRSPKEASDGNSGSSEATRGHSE
The test can be described thus: Calcium assay, hTAS1R1 mutant co-expressed with rTAS1R3. In kind it is cell-based, human, rat.

On to `N[C@@H](CCC(=O)N[C@@H](CS)C(=O)NCC(=O)O)C(=O)O` [GSH, γ-L-glutamyl-L-cysteinyl-glycine], for which the EC50 is 2030 ± 416 µM. Further, the “effect of the added compound (1 mM) on the response to L-Glu” value (H71A) was “did not affect”. Moreover, where the note is “H71A, GSH”, the “Max ∆F/F0” value is 0.44 ± 0.03 and the “R1 = mutant EC50/WT EC50” value turned out to be 0.8.
Consider `CCCC(CCC)NC(=O)c1ccc2c(c1)OCO2` [S807, N-(heptan-4-yl)benzo[d][1,3]dioxole-5-carboxamide, reference compound], for which the “response to the agonist alone, vs WT” value (H71A) is recorded as “strongly affected”.
